According to patent publication US20240360459A1 (Nankai University, priority 2023, published 2024):

Biological target: Mtb ATP synthase (Mycobacterium tuberculosis, UniProt P9WPS1+P9WPV7)
Assay: biochemical
Type: binding

Structure (SMILES): COc1nc2ccc(Br)cc2cc1[C@@H](c1ccccc1)[C@@](O)(CCN(C)C)c1cccc2ccccc12 [bedaquiline]
- Kd: 36.5 µM
